In general, inhibition refers to the relative decrease from the control value, in per cent. By Ki is commonly meant the equilibrium dissociation constant of an inhibitor or competing ligand from its target.

This is an account of results in patent US20050026836A1, “Composition for the treatment of damaged tissue” (priority 1999, published 2005).

Common to all, as to assay type: biochemical
In one assay the target is T1, MMP-3 (Homo sapiens, UniProt P08254).
T1 construct: made in house
As to the kind of experiment: Reduction of MMP-3-catalysed degradation of KGF-2. To be noted: MMP-3 / KGF-2, read-out: Percentage inhibition of proteolysis.

Assay [1] addresses T2, catalytic domain of human MMP-9 (Homo sapiens, UniProt P14780).
T2 sequence (P14780 with tags, fused parts or gaps DEL216-390 limits assumed): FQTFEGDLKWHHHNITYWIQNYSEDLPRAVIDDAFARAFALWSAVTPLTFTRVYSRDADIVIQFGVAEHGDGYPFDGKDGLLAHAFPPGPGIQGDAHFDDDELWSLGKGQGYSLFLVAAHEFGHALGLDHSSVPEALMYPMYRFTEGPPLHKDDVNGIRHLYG
As to the kind of experiment: MMP-9 fluorogenic inhibition assay. Conditions: read-out: Calculated Ki(nM) MMP-9. The protocol:
All enzymes were pre-activated at 37° C. with aminophenylmercuric acetate (APMA) or trypsin before being made up to the final concentrations used in the assay. MMP-1 (30 nM) was activated with 0.93 mM APMA for 20 minutes, MMP-2 (30 nM) was activated with 1.32 mM APMA for 1 hour, MMP-3 (1010 nM) was activated with 1.81 mM APMA for 3 hours or heat activated at 55° C. for three hours, MMP-9 (100 nM) was activated with 2 mM APMA for 2 hours, human MMP-13 (100 nM) was activated with 2 mM APMA for 2 hours, and MMP-14 (900 nM) was activated with 0.9 ng/ml trypsin for 25 minutes, followed by the addition of 4.5 ng/ml trypsin inhibitor.
For MMP-1, the assay buffer used was 50 mM Tris, 200 mM NaCl, 5 mM CaCl2, 20 μM ZnCl2, 0.05% (w/v) Brij 35, pH 7.5. […] For MMP-13, the assay buffer used was 50 mM Tris, pH 7.5, 200 mM NaCl, 5 mM CaCl2, […] and 0.02% (w/v) Brij 35. For MMP-14, the assay buffer used was 50 mM Tris, 100 mM NaCl, 10 mM CaCl2, 0.25% (w/v) Brij 35, pH 7.5.
MMP-2, MMP-3 and MMP-9 inhibition was assayed by incubating activated catalytic domain of human MMP-2, MMP-3 and MMP-9 at 1 nM in assay buffer with 5 μM substrate Mca-Arg-Pro-Lys-Pro-Tyr-Ala-Nva-Trp-Met-Lys(Dnp)-NH2, and six different concentrations of inhibitor. The incubation was performed at 37° C. for 60 minutes.
The final assay concentrations of inhibitors used in the MMP-1 assays to determine Ki were 50, 40, 30, 20, 10 and 5 μM. For MMP-2, the final assay concentrations of inhibitors used were 1000, 800, 600, 400, 200 and 100 nM. For MMP-3, the final assay concentrations of inhibitors used were 5, 4, 3, 2, 1 and 0.5 nM. For MMP-9 and MMP-14, the final assay concentrations of inhibitors used were 5, 4, 3, 2, 1 and 0.5 μM.
All assays were carried out in a black 96-well plate with a final volume of 100 μl in each well. […] For MMP-2, MMP-3, MMP-9 and MMP-14, fluorescence was read every 2 minutes at […] and 393 nm γem for 1 hour using a Fluorostar fluorimeter (BMG) with BIOLISE software. For MMP-1 assays, the filters used were 355 nm γex and 440 nm γem; fluorescence was read every 2 minutes for 1 hour. […]

The target of another assay is T3, MMP-13 (Homo sapiens, UniProt P45452).
T3 construct: made in house
As to the kind of experiment: MMP-13 fluorogenic inhibition assay. Conditions: estimated from IC50; read-out: Calculated Ki(nM) MMP-13. The protocol: All enzymes were pre-activated at 37° C. with aminophenylmercuric acetate (APMA) or trypsin before being made up to the final concentrations used in the assay.
For MMP-1, the assay buffer used was 50 mM Tris, 200 mM NaCl, 5 mM CaCl2, 20 μM ZnCl2, 0.05% (w/v) Brij 35, pH 7.5. […] For MMP-13, the assay buffer used was 50 mM Tris, pH 7.5, 200 mM NaCl, 5 mM CaCl2, […] and 0.02% (w/v) Brij 35.
Assays were carried out in 96-well microfluor plates. All incubations were performed at 37° C. and fluorescence readings determined at 360 nm γex and 450 nm γem.
For the assay, the fluorescence values at time zero were subtracted from those determined at 15 or 20 minutes. The % response was then calculated by comparison to positive controls (enzyme, buffer and substrate in the absence of inhibitor). IC50 values were then determined using FitCurve (Excel Tessella Stats add-in).
These were estimated using the following equation: IC50=(Ki*[…], where S is the substrate concentration and Km the Michaelis-Menton coefficient. Serine Protease Assays

T1 sequence (P08254 100-272 limits assumed): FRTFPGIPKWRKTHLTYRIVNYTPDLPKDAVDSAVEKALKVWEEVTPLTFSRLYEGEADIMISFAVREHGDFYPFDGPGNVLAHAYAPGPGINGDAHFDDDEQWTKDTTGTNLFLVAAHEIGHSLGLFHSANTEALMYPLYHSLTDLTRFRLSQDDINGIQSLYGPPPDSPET

Take `COC[C@@H](NC(=O)[C@@H](NC(=O)[C@H](CCCc1ccc(-c2cccc(OC)c2)c(C)c1)CC(=O)O)C(C)(C)C)c1ccccc1` [compound 9454, (3R)-3-({[(1S)-2,2-Dimethyl-1-({[(1S)-2-methoxy-1-phenylethyl]amino}carbonyl)propyl]amino}carbonyl)-6-(3′-methoxy-2-methylbiphen-4-yl)hexanoic acid]: the inhibition at 0.1 µM on MMP-3 (inhibitor 0.1 μM) was 45%. Further, the inhibition at 1 µM at MMP-3 (inhibitor 1 μM) came to 30%. In addition, the inhibition at 10 µM on MMP-3 (inhibitor 10 μM) was 62%. Also, the inhibition at 100 µM on MMP-3 (inhibitor 100 μM) amounted to 68%. Also, the Ki in assay [1] was 52400 nM; on MMP-13 it was 857 nM.
